From the supplement of paper PMC10307832

Compound: CCOc1cc2ncc(C#N)c(Nc3ccc(OCc4ccccn4)c(Cl)c3)c2cc1NC(=O)/C=C/CN(C)C [Neratinib] + CC(=O)Nc1cccc(-n2c(=O)n(C3CC3)c(=O)c3c(Nc4ccc(I)cc4F)n(C)c(=O)c(C)c32)c1 [Trametinib] (partner 0.02 µM)
Assay: relative viability (nuclei count vs DMSO), 5 days (fraction); higher = more cells survive
Method in brief: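 Lung cancer cell lines in 1536-well plates got either a single drug or a fixed anchor-drug dose together with five library-drug doses (not always all listed) in √10 steps, by pin tool, on the day after seeding. Nuclei were counted after 5 days, and relative viability is the treated-to-vehicle ratio of nuclei counts. Values are medians of duplicate plates.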

Cell Line	relative viability (first compound 0.01 µM)	relative viability (first compound 0.1 µM)	relative viability (first compound 0.3162 µM)	relative viability (first compound 1 µM)	relative viability (first compound 0.03162 µM)
201T	0.755	0.688	0.707	0.707	–
A-427	0.835	0.807	0.637	0.337	0.85
BEN	1.02	1	0.883	0.792	1.2
CAL-12T	0.322	0.236	0.254	0.223	0.322
COR-L23	0.572	0.598	0.482	0.379	0.603
COR-L 105	0.49	0.372	0.32	0.4	0.441
ChaGo-K-1	0.886	0.754	0.882	0.845	0.941
EKVX	0.353	0.315	0.139	0.162	0.334
EMC-BAC-2	0.949	0.855	0.793	0.671	0.885
EPLC-272H	0.278	0.253	0.248	0.22	0.321
H3255	0.619	0.426	0.241	0.236	0.602
HARA	0.545	0.516	–	0.303	0.786
HCC-15	0.329	0.362	0.349	0.325	0.402
HCC-44	1.14	1.11	1.08	1.09	1.08
HCC-78	0.901	0.678	0.731	0.296	0.668
HCC-366	0.428	0.342	0.322	0.205	0.396
HCC-827	0.426	0.561	0.226	0.153	0.545
HOP-62	0.408	0.337	–	0.405	0.4
LC-2-ad	0.98	0.805	0.845	0.85	0.933
LCLC-97TM1	0.187	0.192	–	0.112	0.193
LCLC-103H	0.739	0.618	0.681	0.639	0.733
LK-2	0.948	0.851	0.501	0.34	0.714
LOU-NH91	0.795	0.698	0.67	0.597	0.746
LU99A	0.578	0.515	0.527	0.43	–

Cell Line	relative viability (first compound 0.01 µM)	relative viability (first compound 0.1 µM)	relative viability (first compound 0.3162 µM)	relative viability (first compound 1 µM)	relative viability (first compound 0.03162 µM)
LXF-289	0.739	0.674	0.685	0.536	0.733
NCI-H23	0.397	0.35	0.342	0.251	0.401
NCI-H322M	0.519	0.506	0.488	0.373	0.486
NCI-H358	0.119	0.0959	0.121	0.125	0.118
NCI-H441	0.509	0.356	0.332	0.245	0.428
NCI-H460	0.233	0.083	0.154	0.0847	0.116
NCI-H520	0.642	–	0.605	0.421	0.804
NCI-H596	0.825	0.765	0.707	0.641	0.947
NCI-H647	0.439	0.366	0.466	0.229	0.543
NCI-H650	0.968	1.16	–	0.937	1.03
NCI-H661	0.63	0.447	0.352	0.276	0.568
NCI-H727	0.398	–	0.355	0.332	0.427
NCI-H838	0.53	0.502	0.499	0.281	0.554
NCI-H1355	0.422	0.344	0.361	0.349	0.421
NCI-H1395	1.18	1.11	1.11	0.65	1.18
NCI-H1437	0.488	0.485	0.424	0.328	0.579
NCI-H1648	0.449	0.276	0.262	0.335	0.402
NCI-H1650	0.62	0.494	0.405	0.315	0.744
NCI-H1651	0.87	0.793	0.759	0.609	–
NCI-H1666	0.868	0.712	0.637	0.78	0.815
NCI-H1734	0.781	0.587	–	0.503	0.788
NCI-H1755	0.761	0.646	0.752	0.809	0.814
NCI-H1792	0.476	0.423	0.39	0.26	0.663
NCI-H1793	0.454	0.407	0.361	0.253	0.509

Cell Line	relative viability (first compound 0.01 µM)	relative viability (first compound 0.1 µM)	relative viability (first compound 0.3162 µM)	relative viability (first compound 1 µM)	relative viability (first compound 0.03162 µM)
NCI-H1915	0.32	0.294	0.299	0.23	0.314
NCI-H1944	0.434	0.364	0.311	0.286	0.396
NCI-H1975	0.388	0.373	0.233	0.165	0.542
NCI-H1993	0.445	0.512	0.419	0.54	0.505
NCI-H2009	0.301	0.307	0.266	0.179	0.262
NCI-H2023	0.594	0.371	0.43	0.399	0.491
NCI-H2085	0.605	0.545	0.397	0.315	0.698
NCI-H2087	0.19	0.15	0.194	0.16	0.173
NCI-H2126	0.646	0.543	0.497	0.36	0.552
NCI-H2170	0.873	0.631	0.178	0.171	0.862
NCI-H2228	0.457	0.359	0.58	0.132	0.93
NCI-H2347	0.264	0.262	0.248	0.266	0.317
NCI-H2405	0.682	–	0.465	0.513	0.612
NCI-H3122	0.29	0.2	0.227	0.175	0.214
PC-3 [JPC-3]	0.745	0.629	0.427	0.435	0.831
PC-14	0.717	0.573	0.096	0.0456	0.832
RERF-LC-KJ	0.844	0.785	0.694	0.504	0.889
SK-LU-1	0.517	0.457	0.442	0.344	0.58
SK-MES-1	0.648	0.564	0.332	–	0.564
SW 900	0.866	0.527	0.729	0.467	0.906
SW 1573	0.554	0.497	0.593	0.276	0.57
UMC-11	0.621	0.673	0.666	0.686	0.879
